We go through one compound from patent US20240082334A1, “STABILIZED STEVIOL GLYCOSIDE COMPOSITIONS AND USES THEREOF” (CARGILL, INCORPORATED, priority 2017, published 2024).

A short description of this data set: Reb M solubility in D2O observed in NMR sample preparation. Format: physicochemical. The settings on record: when SCs are not present, compared with SCs present; room temperature. As to the method:
A total of four samples were prepared for this study, and they are listed below. Each sample was dissolved fully in water, with or without heat as noted below, flash frozen at −80° C., and then placed on a lyophilizer until dry. The dry powders were subsequently dissolved in D2O at room temperature and analyzed by ^1H NMR and ^13C NMR.

On to `C=C1C[C@@]23CC[C@H]4[C@@](C)(CCC[C@@]4(C)C(=O)O[C@@H]4O[C@H](CO)[C@@H](O)[C@H](O[C@@H]5O[C@H](CO)[C@@H](O)[C@H](O)[C@H]5O)[C@H]4O[C@@H]4O[C@H](CO)[C@@H](O)[C@H](O)[C@H]4O)[C@@H]2CC[C@]1(O[C@@H]1O[C@H](CO)[C@@H](O)[C@H](O[C@@H]2O[C@H](CO)[C@@H](O)[C@H](O)[C@H]2O)[C@H]1O[C@@H]1O[C@H](CO)[C@@H](O)[C@H](O)[C@H]1O)C3` [Reb M, Rebaudioside M], for which the “solubility in D2O” value is reported as “much lower”.
